The test addresses T1, human NEP (Homo sapiens, UniProt P08473).
T1 construct: purchased R&D Systems, Minneapolis, Minn; 1182-ZN
Briefly: In vitro enzyme inhibition assay at human NEP (Assay 1). Type of test: biochemical. Conditions: recombinant enzyme, fluorogenic peptide substrate, 37° C. The procedure:
In Vitro Assays for the Quantitation of Inhibitor Potencies (IC50) at Human and Rat NEP, and Human ACE
The inhibitory activities of compounds at human and rat neprilysin (EC 3.4.24.11; NEP) and human angiotensin converting enzyme (ACE) were determined using in vitro assays as described below.
Recombinant human NEP and recombinant human ACE were obtained commercially (R&D Systems, Minneapolis, Minn., catalog numbers 1182-ZN and 929-ZN, respectively). The fluorogenic peptide substrate Mca-D-Arg-Arg-Leu-Dap-(Dnp)-OH (Medeiros et al. (1997) Braz. J. Med. Biol. Res. 30:1157-62; Anaspec, San Jose, Calif.) and Abz-Phe-Arg-Lys(Dnp)-Pro-OH (Araujo et al. (2000) Biochemistry 39:8519-8525; Bachem, Torrance, Calif.) were used in the NEP and ACE assays respectively.
The assays were performed in 384-well white opaque plates at 37° C. using the fluorogenic peptide substrates at a concentration of 10 μM in Assay Buffer (NEP: 50 mM HEPES, pH 7.5, 100 mM NaCl, 0.01% polyethylene glycol sorbitan monolaurate (Tween-20), 10 μM ZnSO4; ACE: 50 mM HEPES, pH 7.5, 100 mM NaCl, 0.01% Tween-20, 1 μM ZnSO4).
Test compounds were assayed over the range of concentrations from […] to 20 μM. Test compounds were added to the enzymes and incubated for 30 minute at 37° C. prior to initiating the reaction by the addition of substrate. Reactions were terminated after 20 minutes of incubation at 37° C. by the addition of glacial acetic acid to a final concentration of 3.6% (v/v).
Plates were read on a fluorometer with excitation and emission wavelengths set to 320 nm and 405 nm, respectively. Inhibition constants were obtained by nonlinear regression of the data using the equation (GraphPad Software, Inc., San Diego, Calif.): v=v0/[1+(I/K′)] where v is the reaction rate, v0 is the uninhibited reaction rate, I is the inhibitor concentration and K′ is the apparent inhibition constant.
Compounds of the invention were tested in this assay and found to have pKi values at human NEP as follows.
T1 sequence (P08473 whole entry): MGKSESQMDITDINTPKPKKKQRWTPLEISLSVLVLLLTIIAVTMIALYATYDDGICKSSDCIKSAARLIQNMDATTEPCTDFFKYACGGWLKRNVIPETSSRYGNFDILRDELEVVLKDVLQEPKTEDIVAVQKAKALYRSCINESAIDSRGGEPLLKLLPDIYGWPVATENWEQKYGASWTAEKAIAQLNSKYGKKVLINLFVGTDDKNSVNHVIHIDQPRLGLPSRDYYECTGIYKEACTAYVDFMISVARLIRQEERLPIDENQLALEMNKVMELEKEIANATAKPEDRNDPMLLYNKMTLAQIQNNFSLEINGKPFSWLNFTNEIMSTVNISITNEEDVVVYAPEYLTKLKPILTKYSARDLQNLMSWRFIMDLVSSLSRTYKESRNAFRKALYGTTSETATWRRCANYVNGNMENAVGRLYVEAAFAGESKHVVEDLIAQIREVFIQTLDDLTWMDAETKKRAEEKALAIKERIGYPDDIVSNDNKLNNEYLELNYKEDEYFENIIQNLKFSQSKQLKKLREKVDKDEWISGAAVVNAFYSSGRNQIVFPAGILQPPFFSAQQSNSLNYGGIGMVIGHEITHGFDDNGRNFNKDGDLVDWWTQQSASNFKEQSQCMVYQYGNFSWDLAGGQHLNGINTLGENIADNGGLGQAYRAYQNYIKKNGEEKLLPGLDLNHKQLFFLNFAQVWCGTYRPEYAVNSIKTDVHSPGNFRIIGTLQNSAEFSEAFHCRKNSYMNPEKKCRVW
Consider `O=C(NN(Cc1ccc(-c2cc(Cl)cc(Cl)c2)cc1)C[C@@H](O)C(=O)O)c1cc(O)no1` [Example 8-25, (R)-3-[N-(3′,5′-Dichloro-biphenyl-4-ylmethyl)-N′-(3-hydroxy-isoxazole-5-carbonyl)-hydrazino]-2-hydroxy-propionic acid], for which the Ki (in general, the equilibrium dissociation constant of an inhibitor or competing ligand from its target) is not above 1 nM.
As to `O=C(NN(Cc1ccc(-c2cccc(Cl)c2)cc1F)C[C@@H](O)C(=O)O)c1nnn[nH]1` [Example 10-8, (R)-3-[N-(3′-Chloro-3-fluoro-biphenyl-4-ylmethyl)-N′-(1H-tetrazole-5-carbonyl)-hydrazino]-2-hydroxy-propionic acid], the Ki is 1.26 to 10 nM.
On to `CCCCc1cc(C(=O)NN(Cc2ccc(-c3cc(Cl)ccc3F)cc2)C[C@@H](O)C(=O)O)nn1CC(=O)O` [Example 8-55, (R)-3-[N′-(5-Butyl-1-carboxymethyl-1H-pyrazole-3-carbonyl)-N-(5′-chloro-2′-fluoro-biphenyl-4-ylmethyl)-hydrazino]-2-hydroxy-propionic acid], for which the inhibition constant Ki was 1.26 to 10 nM.
Consider `O=C(NN(Cc1ccc(-c2cc(Cl)ccc2F)cc1Cl)C[C@@H](O)C(=O)O)c1cc(O)no1` [Example 10-7, (R)-3-[N-(3,5′-Dichloro-2′-fluoro-biphenyl-4-ylmethyl)-N′-(3-hydroxy-isoxazole-5-carbonyl)-hydrazino]-2-hydroxy-propionic acid], for which the Ki is not above 1 nM.
To `O=C(NN(Cc1ccc(-c2cccc(Cl)c2)cc1)C[C@@H](O)C(=O)O)c1cc(-c2cccnc2)[nH]n1` [Example 4-9, (R)-3-[N-(3′-Chlorobiphenyl-4-ylmethyl)-N′-(5-pyridin-3-yl-1H-pyrazole-3-carbonyl)-hydrazino]-2-hydroxy-propionic acid] belongs 1.26 to 10 nM; to `O=C(NN(Cc1ccc(-c2cccc(Cl)c2)cc1)C[C@@H](O)C(=O)O)c1cc(-c2ccccc2Cl)n[nH]1` [Example 4-15, (R)-3-{N-(3′-Chlorobiphenyl-4-ylmethyl)-N′-[5-(2-chlorophenyl)-2H-pyrazole-3-carbonyl]-hydrazino}-2-hydroxy-propionic acid], not above 1 nM; to `CC(C)Cc1cc(C(=O)NN(Cc2ccc(-c3cc(Cl)ccc3F)cc2)C[C@@H](O)C(=O)O)on1` [Example 8-30, (R)-3-[N-(5′-Chloro-2′-fluoro-biphenyl-4-ylmethyl)-N′-(3-isobutyl-isoxazole-5-carbonyl)-hydrazino]-2-hydroxy-propionic acid], not above 1 nM.
For the compound `O=C(NN(Cc1ccc(-c2cc(Cl)ccc2F)cc1)C[C@@H](O)C(=O)O)c1cc(Cl)c2nn[nH]c2c1` [Example 8-69, (R)-3-[N′-(7-Chloro-3H-benzotriazole-5-carbonyl)-N-(5′-chloro-2′-fluoro-biphenyl-4-ylmethyl)-hydrazino]-2-hydroxy-propionic acid], the inhibitory constant (Ki) was not above 1 nM.
On to `O=C(NN(Cc1ccc(-c2ccccc2)cc1)C[C@@H](O)C(=O)O)c1cc(O)no1` [Example 2-19, (R)-3-[N-Biphenyl-4-ylmethyl-N′-(3-hydroxyisoxazole-5-carbonyl)-hydrazino]-2-hydroxypropionic acid], for which the Ki is 1.26 to 10 nM.
For `COc1ccccc1-c1ccc(CN(C[C@@H](O)C(=O)O)NC(=O)c2nnn[nH]2)cc1` [Example 5-10, (R)-2-Hydroxy-3-[N-(2′-methoxy-biphenyl-4-ylmethyl)-N′-(1H-tetrazole-5-carbonyl)-hydrazino]-propionic acid] the value was 1.26 to 10 nM; for `COc1ccccc1-c1ccc(CN(C[C@H](O)C(=O)O)NC(=O)c2cc(C(C)=O)n[nH]2)cc1` [Example 5-9, (S)-3-[N′-(5-Acetyl-2H-pyrazole-3-carbonyl)-N-(2′-methoxy-biphenyl-4-ylmethyl)-hydrazino]-2-hydroxy-propionic acid], 1.26 to 10 nM; for `O=C(NN(Cc1ccc(-c2cccc(Cl)c2)cc1)C[C@@H](O)C(=O)O)c1nc(Cl)n[nH]1` [Example 4-1, (R)-3-[N-(3′-Chlorobiphenyl-4-ylmethyl)-N′-(5-chloro-2H-[1,2,4]triazole-3-carbonyl)-hydrazino]-2-hydroxy-propionic acid], 1.26 to 10 nM.
As to `CCc1cc(C(=O)NN(Cc2ccc(-c3cc(Cl)ccc3F)cc2)C[C@@H](O)C(=O)O)on1` [Example 8-14, (R)-3-[N-(5′-Chloro-2′-fluoro-biphenyl-4-ylmethyl)-N′-(3-ethyl-isoxazole-5-carbonyl)-hydrazino]-2-hydroxy-propionic acid], the Ki is not above 1 nM.
For `O=C(NN(Cc1ccc(-c2ccccc2)cc1)C[C@@H](O)C(=O)O)c1cc(C(=O)N2CC[C@@H](O)C2)n[nH]1` [Example 2-11, (R)-3-{N-Biphenyl-4-ylmethyl-N′-[5-((R)-3-hydroxy-pyrrolidine-1-carbonyl)-2H-pyrazole-3-carbonyl]hydrazino}-2-hydroxypropionic acid], the Ki is 1.26 to 10 nM.
For `O=C(NN(Cc1ccc(-c2cccc(Cl)c2)cc1)C[C@@H](O)C(=O)O)c1cc(-c2ccccc2Cl)no1` [Example 4-29, (R)-3-{N-(3′-Chlorobiphenyl-4-ylmethyl)-N′-[3-(2-chlorophenyl)-isoxazole-5-carbonyl]-hydrazino}-2-hydroxy-propionic acid], the Ki is not above 1 nM.
To `CC(C)(C)c1cc(C(=O)NN(Cc2ccc(-c3cc(Cl)ccc3F)cc2)C[C@@H](O)C(=O)O)on1` [Example 8-33, (R)-3-[N′-(3-tert-Butyl-isoxazole-5-carbonyl)-N-(5′-chloro-2′-fluoro-biphenyl-4-ylmethyl)-hydrazino]-2-hydroxy-propionic acid] belongs 1.26 to 10 nM; to `O=C(NN(Cc1ccc(-c2cc(Cl)ccc2F)cc1)C[C@@H](O)C(=O)O)c1n[nH]c(Cl)n1` [Example 8-82, (R)-3-[N-(5′-Chloro-2′-fluoro-biphenyl-4-ylmethyl)-N′-(5-chloro-1H-[1,2,4]triazole-3-carbonyl)-hydrazino]-2-hydroxy-propionic acid], not above 1 nM; to `COc1ccc(F)cc1-c1ccc(CN(C[C@@H](O)C(=O)O)NC(=O)c2cc(O)no2)cc1` [Example 8-4, (R)-3-[N-(5′-Fluoro-2′-methoxy-biphenyl-4-ylmethyl)-N′-(3-hydroxy-isoxazole-5-carbonyl)-hydrazino]-2-hydroxy-propionic acid], 1.26 to 10 nM.
For `O=C(NN(Cc1ccc(-c2cccc(Cl)c2)cc1)C[C@@H](O)C(=O)O)c1cc(C(=O)N2CC(F)C2)n[nH]1` [Example 4-18, (R)-3-{N-(3′-Chlorobiphenyl-4-ylmethyl)-N′-[5-(3-fluoroazetidine-1-carbonyl)-2H-pyrazole-3-carbonyl]-hydrazino}-2-hydroxy-propionic acid] the value was not above 1 nM.
Consider `O=C(NN(Cc1ccc(-c2cccc(Cl)c2)c(Cl)c1)C[C@@H](O)C(=O)O)c1cc(O)no1` [Example 10-3, (R)-3-[N-(2,3′-Dichloro-biphenyl-4-ylmethyl)-N′-(3-hydroxy-isoxazole-5-carbonyl)-hydrazino]-2-hydroxy-propionic acid], for which the Ki is not above 1 nM.
To `O=C(NN(Cc1ccc(-c2cccc(Cl)c2)cc1)C[C@@H](O)C(=O)O)c1cc(-c2ccccc2F)no1` [Example 4-31, (R)-3-{N-(3′-Chlorobiphenyl-4-ylmethyl)-N′-[3-(2-fluorophenyl)-isoxazole-5-carbonyl]-hydrazino}-2-hydroxy-propionic acid] belongs 1.26 to 10 nM.
On to `CN(C)C(=O)c1cc(C(=O)NN(Cc2ccc(-c3ccccc3)cc2)C[C@@H](O)C(=O)O)[nH]n1` [Example 2-6, (R)-3-[N-Biphenyl-4-ylmethyl-N′-(5-dimethylcarbamoyl-2H-pyrazole-3-carbonyl)-hydrazino]-2-hydroxypropionic acid], for which the Ki is 1.26 to 10 nM.
Turning to `O=C(NN(Cc1ccc(-c2cc(Cl)ccc2F)cc1)C[C@@H](O)C(=O)O)c1cnc(O)s1` [Example 8-83, (R)-3-[N-(5′-Chloro-2′-fluoro-biphenyl-4-ylmethyl)-N′-(2-hydroxy-thiazole-5-carbonyl)-hydrazino]-2-hydroxy-propionic acid], the Ki is not above 1 nM.
Consider `O=C(NN(Cc1ccc(-c2ccccc2)cc1)C[C@@H](O)C(=O)O)c1cc(C(=O)N2CCOCC2)n[nH]1` [Example 2-15, (R)-3-{N-Biphenyl-4-ylmethyl-N′-[5-(morpholine-4-carbonyl)-2H-pyrazole-3-carbonyl]hydrazino}-2-hydroxypropionic acid], for which the Ki is 1.26 to 10 nM.
For `O=C(NN(Cc1ccc(-c2cccc(Cl)c2)cc1)C[C@@H](O)C(=O)O)c1cnc(O)s1` [Example 4-40, (R)-3-[N-(3′-Chlorobiphenyl-4-ylmethyl)-N′-(2-hydroxy-thiazole-5-carbonyl)-hydrazino]-2-hydroxy-propionic acid] the value was 1.26 to 10 nM.

The record behind these values is patent US9873696B2, “Neprilysin inhibitors” (THERAVANCE BIOPHARMA R&D IP, LLC, priority 2010, dated 2018).
